Assay results taken from patent publication US8563714B2, “Bridged spiro [2.4] heptane derivatives as ALX receptor and/or FPRL2 agonists” (Actelion Pharmaceuticals Ltd., priority 2009, dated 2013).

Legend:
human ALX receptor = target: T1, human ALX receptor (Homo sapiens, UniProt P25090); experiment: Intracellular calcium measurements (FLIPR), agonistic activity in HEK293-hALXR-Gα16 cells; type: cell-based; conditions: Fluo-4 calcium FLIPR, normalized to WKYMVm 10 nM
T1 construct: expressed in transfected cells; host or cells: HEK293 (HEK293-hALXR-Gα16)
T1 sequence (P25090 1-351): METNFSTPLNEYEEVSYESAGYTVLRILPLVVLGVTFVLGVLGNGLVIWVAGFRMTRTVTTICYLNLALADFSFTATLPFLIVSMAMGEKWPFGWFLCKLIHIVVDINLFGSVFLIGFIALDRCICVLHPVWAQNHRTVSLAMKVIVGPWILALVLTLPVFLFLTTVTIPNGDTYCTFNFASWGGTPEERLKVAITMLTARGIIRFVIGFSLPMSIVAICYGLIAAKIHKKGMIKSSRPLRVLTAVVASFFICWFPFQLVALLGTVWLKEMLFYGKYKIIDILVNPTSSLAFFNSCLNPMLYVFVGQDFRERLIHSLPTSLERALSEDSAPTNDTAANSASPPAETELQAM
In short: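 Agonist-induced calcium flux was recorded by FLIPR (488/540 nm) in HEK293-hALXR-Gα16 cells pre-loaded with Fluo-4 AM (1 μM, 60 min, 37°C). Peak signal above baseline, after subtracting buffer addition, was expressed relative to WKYMVm at 10 nM final.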

human FPRL2 = target: T2, human FPRL2 (Homo sapiens, UniProt P25089); experiment: Intracellular calcium measurements (FLIPR), agonistic activity in HEK293-hFPRL2-Gα16 cells; type: cell-based; conditions: Fluo-4 calcium FLIPR, normalized to GLY14-Humanin 100 nM
T2 construct: expressed in transfected cells; host or cells: HEK293 (HEK293-hFPRL2-Gα16)
T2 sequence (P25089 1-353): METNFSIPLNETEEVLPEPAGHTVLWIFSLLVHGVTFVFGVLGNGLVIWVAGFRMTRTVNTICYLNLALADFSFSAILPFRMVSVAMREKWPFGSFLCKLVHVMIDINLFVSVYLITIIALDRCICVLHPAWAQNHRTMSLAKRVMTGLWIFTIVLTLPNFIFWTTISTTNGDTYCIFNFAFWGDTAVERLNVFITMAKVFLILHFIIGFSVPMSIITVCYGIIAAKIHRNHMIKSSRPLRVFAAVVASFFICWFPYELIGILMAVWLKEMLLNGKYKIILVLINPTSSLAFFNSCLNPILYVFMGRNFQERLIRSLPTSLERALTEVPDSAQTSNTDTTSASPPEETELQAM
In short: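 Peak values after baseline subtraction are expressed relative to 100 nM Gly14-Humanin; compounds diluted in assay buffer from 10 mM DMSO stocks.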

SMILES	EC50 (human ALX receptor)	EC50 (human FPRL2)
Cc1ccc(CCNC(=O)C2C(C(=O)NCCCCN3CCCC3)C3C=CC2C32CC2)cc1 (stereo not drawn) [Example 381, (5R*)—N^5-(2-(4-Methylphenyl)ethyl)-(6R*)—N^6-(4-pyrrolidino-butyl)-(4S*,7R*)-[4,7-ethenylene-spiro[2.4]heptane]-5,6-dicarboxamide]	3900 nM	30 nM
O=C(NCCCCN1CCCC1)C1C(C(=O)NCCc2ccc(F)cc2)C2C=CC1C21CC1 (stereo not drawn) [Example 382, (5R*)—N^5-(2-(4-Fluorophenyl)ethyl)-(6R*)—N^6-(4-pyrrolidino-butyl)-(4S*,7R*)-[4,7-ethenylene-spiro[2.4]heptane]-5,6-dicarboxamide]	6360 nM	52 nM
CCOc1ccc(CNC(=O)C2C(C(=O)NCCCCN3CCCC3)C3C=CC2C32CC2)cc1 (stereo not drawn) [Example 386, (5R*)—N^5-(4-Ethoxyphenyl-methyl)-(6R*)—N^6-(4-pyrrolidino-butyl)-(4S*,7R*)-[4,7-ethenylene-spiro[2.4]heptane]-5,6-dicarboxamide]	2910 nM	254 nM
O=C(NCCCCN1CCCC1)[C@H]1[C@H](C(=O)NCCc2ccc(Cl)cc2)[C@@H]2C=C[C@H]1C21CC1 [Example 387, (5R)—N^5-(2-(4-Chlorophenyl)ethyl)-(6R)—N^6-(4-pyrrolidino-butyl)-(4S,7R)-[4,7-ethenylene-spiro[2.4]heptane]-5,6-dicarboxamide]	8270 nM	26 nM
CN(C)CCNC(=O)[C@H]1[C@H](C(=O)NCCc2ccc(Cl)cc2)[C@@H]2C=C[C@H]1C21CC1 [Example 388, (5R)—N^5-(2-(4-Chlorophenyl)ethyl)-(6R)—N^6-(2-dimethylamino-ethyl)-(4S,7R)-[4,7-ethenylene-spiro[2.4]heptane]-5,6-dicarboxamide]	> 25000 nM	623 nM
O=C(NCCc1ccccn1)[C@H]1[C@H](C(=O)NCCc2ccc(Cl)cc2)[C@@H]2C=C[C@H]1C21CC1 [Example 389, (5R)—N^5-(2-(4-Chlorophenyl)ethyl)-(6R)—N^6-(2-(pyridin-2-yl)ethyl)-(4S,7R)-[4,7-ethenylene-spiro[2.4]heptane]-5,6-dicarboxamide]	> 25000 nM	554 nM
NS(=O)(=O)c1ccc(CCNC(=O)[C@H]2[C@H](C(=O)NCCc3ccc(Cl)cc3)[C@@H]3C=C[C@H]2C32CC2)cc1 [Example 390, (5R)—N^5-(2-(4-Chlorophenyl)ethyl)-(6R)—N^6-(2-(4-aminosulfonyl-phenyl)-ethyl)-(4S,7R)-[4,7-ethenylene-spiro[2.4]heptane]-5,6-dicarboxamide]	> 25000 nM	576 nM
O=C(NCCCCN1CCCC1)[C@H]1[C@H](C(=O)NCCc2ccc(Cl)cc2Cl)[C@@H]2C=C[C@H]1C21CC1 [Example 391, (5R)—N^5-(2-(2,4-Dichlorophenyl)ethyl)-(6R)—N^6-(4-pyrrolidino-butyl)-(4S,7R)-[4,7-ethenylene-spiro[2.4]heptane]-5,6-dicarboxamide]	9710 nM	3.8 nM
CC(C)CCN1CCC(NC(=O)[C@H]2[C@H](C(=O)NCCc3ccc(Cl)cc3)[C@@H]3C=C[C@H]2C32CC2)CC1 [Example 392, (5R)—N^5-(2-(4-Chlorophenyl)ethyl)-(6R)—N^6—(N-isopentyl-piperidin-4-yl)-(4S,7R)-[4,7-ethenylene-spiro[2.4]heptane]-5,6-dicarboxamide]	10400 nM	20 nM
O=C(NCCCCN1CCCC1)[C@H]1[C@H](C(=O)Nc2cc(F)c(Br)c(F)c2)[C@@H]2C=C[C@H]1C21CC1 [Example 393, (5R)—N^5-(4-Bromo-3,5-difluorophenyl)-(6R)—N^6-(4-pyrrolidino-butyl)-(4S,7R)-[4,7-ethenylene-spiro[2.4]heptane]-5,6-dicarboxamide]	1190 nM	16 nM
O=C(NCCCCN1CCCC1)[C@H]1[C@H](C(=O)Nc2nc(Br)cs2)[C@@H]2C=C[C@H]1C21CC1 [Example 394, (5R)—N^5-(4-Bromo-thiazol-2-yl)-(6R)—N^6-(4-pyrrolidino-butyl)-(4S,7R)-[4,7-ethenylene-spiro[2.4]heptane]-5,6-dicarboxamide]	1550 nM	166 nM
O=C(NCCCCN1CCCC1)[C@H]1[C@H](C(=O)Nc2ccc(Br)c(C(F)(F)F)c2)[C@@H]2C=C[C@H]1C21CC1 [Example 395, (5R)—N^5-(4-Bromo-3-trifluoromethylphenyl)-(6R)—N^6-(4-pyrrolidino-butyl)-(4S,7R)-[4,7-ethenylene-spiro[2.4]heptane]-5,6-dicarboxamide]	3800 nM	13 nM
CC1CCC(C)N1CCCCNC(=O)[C@H]1[C@H](C(=O)Nc2ccc(Br)cc2)[C@@H]2C=C[C@H]1C21CC1 (stereo partly drawn) [Example 397, (5R)—N^5-(4-Bromophenyl)-(6R)—N^6-(4-(2,5-dimethylpyrrolidin-1-yl)butyl)-(4S,7R)-[4,7-ethenylene-spiro[2.4]heptane]-5,6-dicarboxamide]	2.1 nM	149 nM
CC(CCCNC(=O)[C@H]1[C@H](C(=O)Nc2ccc(Br)cc2)[C@@H]2C=C[C@H]1C21CC1)N1CCCC1 (stereo partly drawn) [Example 398, (5R)—N^5-(4-Bromophenyl)-(6R)—N^6-(4-(pyrrolidin-1-yl)pentyl)-(4S,7R)-[4,7-ethenylene-spiro[2.4]heptane]-5,6-dicarboxamide]	1.8 nM	7510 nM
O=C(NCCC(F)CN1CCCC1)[C@H]1[C@H](C(=O)Nc2ccc(Br)cc2)[C@@H]2C=C[C@H]1C21CC1 (stereo partly drawn) [Example 399, (5R)—N^5-(4-Bromophenyl)-(6R)—N^6-(3-fluoro-4-(pyrrolidin-1-yl)butyl)-(4S,7R)-[4,7-ethenylene-spiro[2.4]heptane]-5,6-dicarboxamide]	5 nM	4770 nM
COCC1CCCN1CCCCNC(=O)[C@H]1[C@H](C(=O)Nc2ccc(Br)cc2)[C@@H]2C=C[C@H]1C21CC1 (stereo partly drawn) [Example 400, (5R)—N^5-(4-Bromophenyl)-(6R)—N^6-(4-(2-(methoxymethyl)pyrrolidin-1-yl)butyl)-(4S,7R)-[4,7-ethenylene-spiro[2.4]heptane]-5,6-dicarboxamide]	1.4 nM	7650 nM
O=C(NCCCCN1CCC(F)(F)C1)[C@H]1[C@H](C(=O)Nc2ccc(Br)cc2)[C@@H]2C=C[C@H]1C21CC1 [Example 401, (5R)—N^5-(4-Bromophenyl)-(6R)—N^6-(4-(3,3-difluoropyrrolidin-1-yl)butyl)-(4S,7R)-[4,7-ethenylene-spiro[2.4]heptane]-5,6-dicarboxamide]	4.4 nM	516 nM
O=C(NCCCCN1CCCC1)[C@H]1[C@H](C(=O)Nc2cnc(Br)c(F)c2)[C@@H]2CC[C@H]1C21CC1 [Example 402, (5R)—N^5-(2-Bromo-3-fluoro-pyridin-5-yl)-(6R)—N^6-(4-pyrrolidino-butyl)-(4S,7R)-[4,7-ethylene-spiro[2.4]heptane]-5,6-dicarboxamide]	349 nM	66 nM
O=C(NCCO)[C@H]1[C@H](C(=O)Nc2ncc(Br)s2)[C@@H]2CC[C@H]1C21CC1 [Example 403, (5R)—N^5-(5-Bromothiazol-2-yl)-(6R)—N^6-(2-hydroxyethyl)-(4S,7R)-[4,7-ethylene-spiro[2.4]heptane]-5,6-dicarboxamide]	158 nM	21400 nM
O=C(NCCCO)[C@H]1[C@H](C(=O)Nc2ncc(Br)s2)[C@@H]2CC[C@H]1C21CC1 [Example 404, (5R)—N^5-(5-Bromothiazol-2-yl)-(6R)—N^6-(3-hydroxypropyl)-(4S,7R)-[4,7-ethylene-spiro[2.4]heptane]-5,6-dicarboxamide]	96 nM	10000 nM
O=C(NCCCCO)[C@H]1[C@H](C(=O)Nc2ncc(Br)s2)[C@@H]2CC[C@H]1C21CC1 [Example 405, (5R)—N^5-(5-Bromothiazol-2-yl)-(6R)—N^6-(4-hydroxybutyl)-(4S,7R)-[4,7-ethylene-spiro[2.4]heptane]-5,6-dicarboxamide]	80 nM	7840 nM
CC(C)(CO)NC(=O)[C@H]1[C@H](C(=O)Nc2ncc(Br)s2)[C@@H]2CC[C@H]1C21CC1 [Example 406, (5R)—N^5-(5-Bromothiazol-2-yl)-(6R)—N^6-(2-methyl-3-hydroxyprop-2-yl)-(4S,7R)-[4,7-ethylene-spiro[2.4]heptane]-5,6-dicarboxamide]	333 nM	15200 nM
O=C(NCCOCCO)[C@H]1[C@H](C(=O)Nc2ncc(Br)s2)[C@@H]2CC[C@H]1C21CC1 [Example 407, (5R)—N^5-(5-Bromothiazol-2-yl)-(6R)—N^6-(2-(2-hydroxyethoxy)ethyl)-(4S,7R)-[4,7-ethylene-spiro[2.4]heptane]-5,6-dicarboxamide]	11 nM	9230 nM
